In the NIST ThermoML archive (doi:10.1016/j.tca.2006.05.010):
Numbers after ± are expanded uncertainties.

Tests used:
[1] = excess molar enthalpy (molar enthalpy of mixing); xn = mol fraction of the nth substance listed; conditions: 308.15 K, 101 kPa, Liquid, Flow calorimetry
[2] = molar heat capacity at constant pressure; xn = mol fraction of the nth substance listed; conditions: 308.15 K, 101 kPa, Liquid, Small sample (50 mg) DSC
[3] = 101.33 kPa, Liquid, Vibrating tube method
[4] = molar heat capacity at constant pressure; conditions: 101.33 kPa, Liquid, Small sample (50 mg) DSC
[5] = refractive index (Na D-line) (dimensionless); conditions: 101.33 kPa, Liquid, Standard Abbe refractometry

## C1COCCO1 [1,4-dioxane] + C[S+](C)[O-]
[1]; x2 = 0.0478
  excess molar enthalpy: 0.0318 ± 0.000478 kcal/mol
[1]; x2 = 0.0911
  excess molar enthalpy: 0.0531 ± 0.000717 kcal/mol
[1]; x2 = 0.1308
  excess molar enthalpy: 0.0672 ± 0.000956 kcal/mol
[1]; x2 = 0.1671
  excess molar enthalpy: 0.0765 ± 0.000956 kcal/mol
[1]; x2 = 0.2313
  excess molar enthalpy: 0.0872 ± 0.0012 kcal/mol
[1]; x2 = 0.2863
  excess molar enthalpy: 0.0923 ± 0.0012 kcal/mol
[1]; x2 = 0.3757
  excess molar enthalpy: 0.0978 ± 0.0012 kcal/mol
[1]; x2 = 0.4451
  excess molar enthalpy: 0.0997 ± 0.00143 kcal/mol
[1]; x2 = 0.5462
  excess molar enthalpy: 0.0966 ± 0.0012 kcal/mol
[1]; x2 = 0.6437
  excess molar enthalpy: 0.0915 ± 0.0012 kcal/mol
[1]; x2 = 0.7066
  excess molar enthalpy: 0.0851 ± 0.0012 kcal/mol
[1]; x2 = 0.7831
  excess molar enthalpy: 0.0741 ± 0.000956 kcal/mol
[1]; x2 = 0.828
  excess molar enthalpy: 0.065 ± 0.000956 kcal/mol
[1]; x2 = 0.8784
  excess molar enthalpy: 0.0495 ± 0.000717 kcal/mol
[1]; x2 = 0.9059
  excess molar enthalpy: 0.0399 ± 0.000717 kcal/mol
[1]; x2 = 0.9353
  excess molar enthalpy: 0.0277 ± 0.000478 kcal/mol
[1]; x2 = 0.9665
  excess molar enthalpy: 0.0158 ± 0.000239 kcal/mol
[2]; x2 = 0.0749
  molar heat capacity at constant pressure: 154.8 ± 2.4 J/K/mol
[2]; x2 = 0.1148
  molar heat capacity at constant pressure: 155.1 ± 2.4 J/K/mol
[2]; x2 = 0.2112
  molar heat capacity at constant pressure: 155.5 ± 2.4 J/K/mol
[2]; x2 = 0.313
  molar heat capacity at constant pressure: 155.4 ± 2.4 J/K/mol
[2]; x2 = 0.4096
  molar heat capacity at constant pressure: 155.1 ± 2.4 J/K/mol
[2]; x2 = 0.5185
  molar heat capacity at constant pressure: 154.6 ± 2.4 J/K/mol
[2]; x2 = 0.6108
  molar heat capacity at constant pressure: 153.9 ± 2.4 J/K/mol
[2]; x2 = 0.6637
  molar heat capacity at constant pressure: 153.5 ± 2.4 J/K/mol
[2]; x2 = 0.7064
  molar heat capacity at constant pressure: 153.2 ± 2.4 J/K/mol
[2]; x2 = 0.8128
  molar heat capacity at constant pressure: 152.5 ± 2.4 J/K/mol
[2]; x2 = 0.8952
  molar heat capacity at constant pressure: 152.7 ± 2.4 J/K/mol
[2]; x2 = 0.9586
  molar heat capacity at constant pressure: 153.5 ± 2.4 J/K/mol

## C[S+](C)[O-] [dimethyl sulfoxide]
[3]; 298.15 K
  mass density: 1095.58 ± 0.29 kg/m3
[3]; 308.15 K
  mass density: 1085.5 ± 0.29 kg/m3
[4]; 293.15 K
  molar heat capacity at constant pressure: 151.2 ± 2.3 J/K/mol
[4]; 298.15 K
  molar heat capacity at constant pressure: 152.4 ± 2.4 J/K/mol
[4]; 303.15 K
  molar heat capacity at constant pressure: 153.4 ± 2.4 J/K/mol
[4]; 308.15 K
  molar heat capacity at constant pressure: 154.8 ± 2.4 J/K/mol
[4]; 313.15 K
  molar heat capacity at constant pressure: 155.4 ± 2.4 J/K/mol
[4]; 318.15 K
  molar heat capacity at constant pressure: 156.6 ± 2.4 J/K/mol
[4]; 323.15 K
  molar heat capacity at constant pressure: 157.7 ± 2.4 J/K/mol
[4]; 328.15 K
  molar heat capacity at constant pressure: 157.8 ± 2.4 J/K/mol
[4]; 333.15 K
  molar heat capacity at constant pressure: 158.5 ± 2.5 J/K/mol
[4]; 338.15 K
  molar heat capacity at constant pressure: 159.3 ± 2.5 J/K/mol
[4]; 343.15 K
  molar heat capacity at constant pressure: 159.5 ± 2.5 J/K/mol
[4]; 348.15 K
  molar heat capacity at constant pressure: 160.2 ± 2.5 J/K/mol
[4]; 353.15 K
  molar heat capacity at constant pressure: 160.3 ± 2.5 J/K/mol
[4]; 358.15 K
  molar heat capacity at constant pressure: 161.3 ± 2.5 J/K/mol
[4]; 363.15 K
  molar heat capacity at constant pressure: 161.5 ± 2.5 J/K/mol
[4]; 368.15 K
  molar heat capacity at constant pressure: 161.7 ± 2.5 J/K/mol
[4]; 373.15 K
  molar heat capacity at constant pressure: 162.6 ± 2.5 J/K/mol
[4]; 378.15 K
  molar heat capacity at constant pressure: 163.3 ± 2.5 J/K/mol
[4]; 383.15 K
  molar heat capacity at constant pressure: 164.8 ± 2.6 J/K/mol
[4]; 388.15 K
  molar heat capacity at constant pressure: 166.3 ± 2.6 J/K/mol
[4]; 393.15 K
  molar heat capacity at constant pressure: 168.3 ± 2.6 J/K/mol
[4]; 398.15 K
  molar heat capacity at constant pressure: 169.1 ± 2.6 J/K/mol
[4]; 403.15 K
  molar heat capacity at constant pressure: 170.3 ± 2.6 J/K/mol
[4]; 408.15 K
  molar heat capacity at constant pressure: 170.4 ± 2.6 J/K/mol
[4]; 413.15 K
  molar heat capacity at constant pressure: 170.6 ± 2.6 J/K/mol
[4]; 418.15 K
  molar heat capacity at constant pressure: 171.1 ± 2.7 J/K/mol
[4]; 423.15 K
  molar heat capacity at constant pressure: 171.2 ± 2.7 J/K/mol
[5]; 298.15 K
  refractive index: 1.4775 ± 0.0004
[5]; 308.15 K
  refractive index: 1.4729 ± 0.0004

## COCCOC [1,2-dimethoxyethane] + C[S+](C)[O-]
[1]; x2 = 0.0577
  excess molar enthalpy: 0.0184 ± 0.000478 kcal/mol
[1]; x2 = 0.1092
  excess molar enthalpy: 0.0339 ± 0.000478 kcal/mol
[1]; x2 = 0.1553
  excess molar enthalpy: 0.0461 ± 0.000717 kcal/mol
[1]; x2 = 0.1969
  excess molar enthalpy: 0.0552 ± 0.000717 kcal/mol
[1]; x2 = 0.2689
  excess molar enthalpy: 0.0681 ± 0.000956 kcal/mol
[1]; x2 = 0.329
  excess molar enthalpy: 0.0779 ± 0.000956 kcal/mol
[1]; x2 = 0.4238
  excess molar enthalpy: 0.0863 ± 0.0012 kcal/mol
[1]; x2 = 0.495
  excess molar enthalpy: 0.0875 ± 0.0012 kcal/mol
[1]; x2 = 0.5953
  excess molar enthalpy: 0.087 ± 0.0012 kcal/mol
[1]; x2 = 0.6882
  excess molar enthalpy: 0.0808 ± 0.0012 kcal/mol
[1]; x2 = 0.7463
  excess molar enthalpy: 0.0755 ± 0.000956 kcal/mol
[1]; x2 = 0.8153
  excess molar enthalpy: 0.0633 ± 0.000956 kcal/mol
[1]; x2 = 0.8547
  excess molar enthalpy: 0.055 ± 0.000717 kcal/mol
[1]; x2 = 0.8982
  excess molar enthalpy: 0.0435 ± 0.000717 kcal/mol
[1]; x2 = 0.9217
  excess molar enthalpy: 0.0339 ± 0.000478 kcal/mol
[1]; x2 = 0.9464
  excess molar enthalpy: 0.0251 ± 0.000478 kcal/mol
[1]; x2 = 0.9725
  excess molar enthalpy: 0.0136 ± 0.000239 kcal/mol
[2]; x2 = 0.1017
  molar heat capacity at constant pressure: 188.6 ± 2.9 J/K/mol
[2]; x2 = 0.1471
  molar heat capacity at constant pressure: 186.5 ± 2.9 J/K/mol
[2]; x2 = 0.2718
  molar heat capacity at constant pressure: 180.8 ± 2.8 J/K/mol
[2]; x2 = 0.3811
  molar heat capacity at constant pressure: 175.8 ± 2.7 J/K/mol
[2]; x2 = 0.4923
  molar heat capacity at constant pressure: 170.8 ± 2.6 J/K/mol
[2]; x2 = 0.5507
  molar heat capacity at constant pressure: 168.3 ± 2.6 J/K/mol
[2]; x2 = 0.5831
  molar heat capacity at constant pressure: 166.9 ± 2.6 J/K/mol
[2]; x2 = 0.677
  molar heat capacity at constant pressure: 163.1 ± 2.5 J/K/mol
[2]; x2 = 0.7788
  molar heat capacity at constant pressure: 159.4 ± 2.5 J/K/mol
[2]; x2 = 0.8414
  molar heat capacity at constant pressure: 157.6 ± 2.4 J/K/mol
[2]; x2 = 0.9315
  molar heat capacity at constant pressure: 155.5 ± 2.4 J/K/mol
[2]; x2 = 0.9626
  molar heat capacity at constant pressure: 155 ± 2.4 J/K/mol

## COCCOC [1,2-dimethoxyethane]
[3]; 298.15 K
  mass density: 861.9 ± 0.24 kg/m3
[3]; 308.15 K
  mass density: 851.28 ± 0.24 kg/m3
[4]; 288.15 K
  molar heat capacity at constant pressure: 188.7 ± 2.9 J/K/mol
[4]; 293.15 K
  molar heat capacity at constant pressure: 189 ± 2.9 J/K/mol
[4]; 298.15 K
  molar heat capacity at constant pressure: 191 ± 3 J/K/mol
[4]; 303.15 K
  molar heat capacity at constant pressure: 192.2 ± 3 J/K/mol
[4]; 308.15 K
  molar heat capacity at constant pressure: 193.4 ± 3 J/K/mol
[4]; 313.15 K
  molar heat capacity at constant pressure: 194.5 ± 3 J/K/mol
[4]; 318.15 K
  molar heat capacity at constant pressure: 195.8 ± 3 J/K/mol
[4]; 323.15 K
  molar heat capacity at constant pressure: 196.9 ± 3.1 J/K/mol
[5]; 298.15 K
  refractive index: 1.3781 ± 0.0004
[5]; 308.15 K
  refractive index: 1.3726 ± 0.0004

## C1COCCO1 [1,4-dioxane]
[3]; 298.15 K
  mass density: 1027.96 ± 0.12 kg/m3
[3]; 308.15 K
  mass density: 1016.99 ± 0.11 kg/m3
[4]; 288.15 K
  molar heat capacity at constant pressure: 146.7 ± 2.3 J/K/mol
[4]; 293.15 K
  molar heat capacity at constant pressure: 150 ± 2.3 J/K/mol
[4]; 298.15 K
  molar heat capacity at constant pressure: 151 ± 2.3 J/K/mol
[4]; 303.15 K
  molar heat capacity at constant pressure: 152.1 ± 2.4 J/K/mol
[4]; 308.15 K
  molar heat capacity at constant pressure: 153.7 ± 2.4 J/K/mol
[4]; 313.15 K
  molar heat capacity at constant pressure: 155.3 ± 2.4 J/K/mol
[4]; 318.15 K
  molar heat capacity at constant pressure: 156.5 ± 2.4 J/K/mol
[4]; 323.15 K
  molar heat capacity at constant pressure: 158.4 ± 2.5 J/K/mol
[4]; 328.15 K
  molar heat capacity at constant pressure: 160.2 ± 2.5 J/K/mol
[4]; 333.15 K
  molar heat capacity at constant pressure: 160.4 ± 2.5 J/K/mol
[5]; 298.15 K
  refractive index: 1.4202 ± 0.0004
[5]; 308.15 K
  refractive index: 1.4154 ± 0.0004

## CCOCCOCC [1,2-diethoxyethane]
[3]; 298.15 K
  mass density: 835.11 ± 0.15 kg/m3
[3]; 308.15 K
  mass density: 826.026 ± 0.15 kg/m3
[4]; 288.15 K
  molar heat capacity at constant pressure: 254.5 ± 3.9 J/K/mol
[4]; 293.15 K
  molar heat capacity at constant pressure: 255.3 ± 4 J/K/mol
[4]; 298.15 K
  molar heat capacity at constant pressure: 257.5 ± 4 J/K/mol
[4]; 303.15 K
  molar heat capacity at constant pressure: 257.9 ± 4 J/K/mol
[4]; 308.15 K
  molar heat capacity at constant pressure: 258.7 ± 4 J/K/mol
[4]; 313.15 K
  molar heat capacity at constant pressure: 259.5 ± 4 J/K/mol
[4]; 318.15 K
  molar heat capacity at constant pressure: 261.2 ± 4 J/K/mol
[4]; 323.15 K
  molar heat capacity at constant pressure: 262.9 ± 4.1 J/K/mol
[5]; 298.15 K
  refractive index: 1.3897 ± 0.0004
[5]; 308.15 K
  refractive index: 1.3853 ± 0.0004
